This experiment deals with ATF4 luciferase reporter in HEK293T cells. The experiment can be described thus: ATF4-Luc assay (ATF4 luciferase reporter, tunicamycin-treated HEK293T cells). Conditions: Homo sapiens, HEK-293T; HEK293T cells carrying the ATF4 luciferase reporter, 1 μg/mL tunicamycin, 7 hours. Format: cell-based, human.

Where only a bound is given, the exact number is not on record here.

On to `O=C(COc1ccc(Cl)c(F)c1)NC12CC(NC(=O)COc3ccc(F)c(Cl)c3)(C1)C2` [Compound 534, 2-(4-chloro-3-fluorophenoxy)-N-{3-[2-(3-chloro-4-fluorophenoxy)acetamido]bicyclo[1.1.1]pentan-1-yl}acetamide], for which the EC50 is less than 10 nM.
As to `O=C(COc1ccc(Cl)c(F)c1)NC12CCC(NC(=O)COc3cccc(F)c3)(CC1)[C@@H](O)C2` [Compound 659, 2-(4-chloro-3-fluorophenoxy)-N-{(3S)-4-[2-(3-fluorophenoxy)acetamido]-3-hydroxybicyclo[2.2.2]octan-1-yl}acetamide], the EC50 is less than 10 nM.
Then `O=C(COc1ccc(Cl)c(F)c1)NC12CCC(NC(=O)COc3ccc(F)c(C(F)(F)F)c3)(CC1)[C@@H](O)C2` [Compound 828, 2-(4-chloro-3-fluorophenoxy)-N-[(3S)-4-{2-[4-fluoro-3-(trifluoromethyl)phenoxy]acetamido}-3-hydroxybicyclo[2.2.2]octan-1-yl]acetamide], with less than 10 nM.
As to `O=C(/C=C/c1ccc(C(F)(F)F)nc1)NC12CC(NC(=O)COc3ccc(Cl)c(F)c3)(C1)C2` [Compound 351, (2E)-N-{3-[2-(4-chloro-3-fluorophenoxy)acetamido]bicyclo[1.1.1]pentan-1-yl}-3-[6-(trifluoromethyl)pyridin-3-yl]prop-2-enamide], the EC50 fell in the range of 250 to 500 nM.
As for `O=C(COc1ccc(Cl)c(F)c1)NC12CCC(NC(=O)COc3ccc(C(F)F)cc3)(CC1)[C@@H](O)C2` [Compound 537, 2-(4-chloro-3-fluorophenoxy)-N-[(3S)-4-{2-[4-(difluoromethyl)phenoxy]acetamido}-3-hydroxybicyclo[2.2.2]octan-1-yl]acetamide], the figure is less than 10 nM; as for `O=C(COc1ccc(Cl)c(F)c1)NC12CCC(NC(=O)COc3ccc(Cl)c(Cl)c3)(CC1)C(=O)N2` [Compound 601, 2-(4-chloro-3-fluorophenoxy)-N-{4-[2-(3,4-dichlorophenoxy)acetamido]-3-oxo-2-azabicyclo[2.2.2]octan-1-yl}acetamide], less than 10 nM.
Turning to `O=C(COc1ccc(Cl)c(Cl)c1)NC12CC(NC(=O)OCCCc3cccc(Cl)c3)(C1)C2` [Compound 174, 3-(3-chlorophenyl)propyl {3-[2-(3,4-dichlorophenoxy)acetamido]-bicyclo[1.1.1]pentan-1-yl}carbamate], the EC50 is 250 to 500 nM.
As to `O=C(COc1ccc(Cl)c(F)c1)NC12CC(NC(=O)CN(CCO)c3ccc(Cl)cc3)(C1)C2` [Compound 609, 2-(4-chloro-3-fluorophenoxy)-N-(3-{2-[(4-chlorophenyl)(2-hydroxyethyl)amino]acetamido}bicyclo[1.1.1]pentan-1-yl)acetamide], the EC50 was more than 2000 nM.
Then `O=C(/C=C/c1ccc(C(F)(F)F)cc1)NC12CC(NC(=O)/C=C/c3ccc(C(F)(F)F)cc3)(C1)C2` [Compound 370, (2E,2′E)-N,N′-(bicyclo[1.1.1]pentane-1,3-diyl)bis{3-[4-(trifluoromethyl)phenyl]prop-2-enamide}], with more than 2000 nM.
As to `Cc1cc(COCC(=O)NC23CC(NC(=O)COc4ccc(Cl)c(F)c4)(C2)C3)cc(C)n1` [Compound 282, 2-(4-chloro-3-fluorophenoxy)-N-(3-{2-[(2,6-dimethylpyridin-4-yl)methoxy]acetamido}bicyclo[1.1.1]pentan-1-yl)acetamide], the EC50 is more than 2000 nM.
As for `O=C(COc1ccc(Cl)c(F)c1)NC12CCC(NS(=O)(=O)Cc3cccc(C(F)(F)F)c3)(CC1)[C@@H](O)C2` [Compound 430, 2-(4-chloro-3-fluorophenoxy)-N-[(3S)-3-hydroxy-4-({[3-(trifluoromethyl)phenyl]methanesulfonyl}amino)bicyclo[2.2.2]octan-1-yl]acetamide], the figure is 500 to 2000 nM.
On to `O=C(COc1cc(F)c2cn[nH]c2c1)NC12CCC(NC(=O)COc3ccc(F)c(F)c3)(CC1)[C@@H](O)C2` [Compound 728, 2-(3,4-difluorophenoxy)-N-[(2S)-4-{2-[(4-fluoro-1H-indazol-6-yl)oxy]acetamido}-2-hydroxybicyclo[2.2.2]octan-1-yl]acetamide], for which the EC50 is less than 10 nM.
Turning to `O=C(COc1ccc(OC(F)(F)F)cc1)NC12CCC(NC(=O)COc3ccc(OC(F)(F)F)cc3)(CC1)[C@@H](O)C2` [Compound 785, N,N′-[(2S)-2-hydroxybicyclo[2.2.2]octane-1,4-diyl]bis{2-[4-(trifluoromethoxy)phenoxy]acetamide}], the EC50 was 50 to 250 nM.
Then `O=C(COc1ccc(Cl)c(F)c1)NC12CCC(NC(=O)COc3cc(-c4ccccc4)n(-c4ccccc4)n3)(CC1)[C@@H](O)C2` [Compound 513, 2-(4-chloro-3-fluorophenoxy)-N-[(3S)-4-{2-[(1,5-diphenyl-1H-pyrazol-3-yl)oxy]acetamido}-3-hydroxybicyclo[2.2.2]octan-1-yl]acetamide], with more than 2000 nM; and `CCc1nc(C)ccc1OCC(=O)NC12CC(NC(=O)COc3ccc(Cl)c(F)c3)(C1)C2` [Compound 239, 2-(4-chloro-3-fluorophenoxy)-N-(3-{2-[(2-ethyl-6-methylpyridin-3-yl)oxy]acetamido}bicyclo[1.1.1]pentan-1-yl)acetamide], with more than 2000 nM.
Then `O=C(COc1ccc(Cl)c(F)c1)NC12CCC(NC(=O)Cc3cccnc3)(CC1)C(O)C2` (stereo not shown) [Compound 324, 2-(4-chloro-3-fluorophenoxy)-N-{3-hydroxy-4-[2-(pyridin-3-yl)acetamido]bicyclo[2.2.2]octan-1-yl}acetamide], with more than 2000 nM; and `O=C(COc1ccc(Cl)c(F)c1)NC12CC(NC(=O)[C@@H](CO)Oc3ccc(Cl)c(F)c3)(C1)C2` [Compound 418, (2R)-2-(4-chloro-3-fluorophenoxy)-N-{3-[2-(4-chloro-3-fluorophenoxy)acetamido]bicyclo[1.1.1]pentan-1-yl}-3-hydroxypropanamide], with 10 to 50 nM.
As for `O=C(COc1ccc(Cl)cc1)NC12CC(NC(=O)COc3ccc(Cl)c(F)c3)(C1)C2` [Compound 368, 2-(4-chloro-3-fluorophenoxy)-N-{3-[2-(4-chlorophenoxy)acetamido]bicyclo[1.1.1]pentan-1-yl}acetamide], the figure is less than 10 nM; as for `O=C(COc1ccc(C(F)(F)F)nc1)NC12CCC(NC(=O)COc3ccc(C(F)(F)F)nc3)(CC1)C2` [Compound 530, N,N′-(bicyclo[2.2.1]heptane-1,4-diyl)bis(2-{[6-(trifluoromethyl)pyridin-3-yl]oxy}acetamide)], 500 to 2000 nM.
Take `O=C(COc1cccc(Cl)c1)NC12CC(NC(=O)COc3ccc(Cl)c(Cl)c3)(C1)C2` [Compound 171, 2-(3-chlorophenoxy)-N-{3-[2-(3,4-dichlorophenoxy)acetamido]-bicyclo[1.1.1]pentan-1-yl}acetamide]: the EC50 is less than 10 nM.
As to `O=C(COc1cc(F)c2cn[nH]c2c1)NC12CCC(NC(=O)COc3ccc4cn[nH]c4c3)(CC1)[C@@H](O)C2` [Compound 709], the EC50 is less than 10 nM.
Consider `O=C(CO)NC(COC(=O)NC12CC(NC(=O)COc3ccc(Cl)c(F)c3)(C1)C2)c1ccc(Cl)cc1` (stereo not shown) [Compound 791, 2-(4-chlorophenyl)-2-(2-hydroxyacetamido)ethyl {3-[2-(4-chloro-3-fluorophenoxy)acetamido]bicyclo[1.1.1]pentan-1-yl}carbamate], for which the EC50 was more than 2000 nM.
Turning to `O=C(COc1ccc2ccccc2c1)NC12CCC(NC(=O)COc3ccc(Cl)c(F)c3)(CC1)[C@@H](O)C2` [Compound 472, 2-(4-chloro-3-fluorophenoxy)-N-[(2S)-2-hydroxy-4-{2-[(naphthalen-2-yl)oxy]acetamido}bicyclo[2.2.2]octan-1-yl]acetamide], the EC50 was less than 10 nM.
As for `O=C(COc1ccc(Cl)cc1)NC12C3C4C1C1C2C3C41NC(=O)COc1ccc(Cl)cc1` (stereo not shown) [Compound 103, N,N′-(pentacyclo[4.2.0.0^2,50^3,80^4,7]octane-1,4-diyl)bis[2-(4-chlorophenoxy)-acetamide]], the figure is 10 to 50 nM.
Take `Cc1ccc(OCC(=O)NC23CCC(NC(=O)COc4ccc(C)cc4)(CC2)[C@@H](O)C3)cc1` [Compound 442, N,N′-[(2S)-2-hydroxybicyclo[2.2.2]octane-1,4-diyl]bis[2-(4-methylphenoxy)acetamide]]: the EC50 is less than 10 nM.
As to `O=C(COc1ccc(Cl)nc1)NC12CC(NC(=O)COc3ccc(Cl)c(F)c3)(C1)C2` [Compound 225, 2-(4-chloro-3-fluorophenoxy)-N-(3-{2-[(6-chloropyridin-3-yl)oxy]acetamido}bicyclo[1.1.1]pentan-1-yl)acetamide], the EC50 was 10 to 50 nM.
With `O=C(COc1ccc(Cl)cc1)NC12CCC(NC(=O)COc3ccc(F)cc3)(CC1)[C@@H](O)C2` [Compound 614, 2-(4-chlorophenoxy)-N-{(3S)-4-[2-(4-fluorophenoxy)acetamido]-3-hydroxybicyclo[2.2.2]octan-1-yl}acetamide], the EC50 is less than 10 nM.
Regarding `O=C(COc1cncc(C(F)(F)F)c1)NC12CC(NC(=O)COc3ccc4c(c3)OC(F)(F)O4)(C1)C2` [Compound 269, 2-[(2,2-difluoro-2H-1,3-benzodioxol-5-yl)oxy]-N-[3-(2-{[5-(trifluoromethyl)pyridin-3-yl]oxy}acetamido)bicyclo[1.1.1]pentan-1-yl]acetamide], the half-maximal effective concentration (EC50) was 10 to 50 nM.
`O=C(COc1ccc(F)c(F)c1)NC12CCC(NC(=O)COc3ccc(F)c(F)c3)(CC1)[C@@H](O)C2` [Compound 615, N,N′-[(2S)-2-hydroxybicyclo[2.2.2]octane-1,4-diyl]bis[2-(3,4-difluorophenoxy)acetamide]]: the EC50 was less than 10 nM.
`O=C(COc1cccc(Cl)c1)NC12CC(NC(=O)COc3ccc(Cl)c(F)c3)(C1)C2` [Compound 146, 2-(4-chloro-3-fluorophenoxy)-N-{3-{2-(3-chlorophenoxy)acetamido}-bicyclo[1.1.1]pentan-1-yl}acetamide]: the EC50 was less than 10 nM.
As for `COC(=O)C1=CC2(NC(=O)COc3ccc(Cl)c(F)c3)CCC1(NC(=O)COc1ccc(Cl)c(F)c1)CC2` [Compound 718, methyl 1,4-bis[2-(4-chloro-3-fluorophenoxy)acetamido]bicyclo[2.2.2]oct-2-ene-2-carboxylate], the figure is less than 10 nM.

The values are drawn from US20240166652A1, “MODULATORS OF THE INTEGRATED STRESS PATHWAY” (Calico Life Sciences LLC, priority 2017, published 2024).
